Measurements from US20210255205A1, “COMPOSITIONS AND METHODS FOR TREATING METABOLIC DISEASE” (THE REGENTS OF THE UNIVERSITY OF CALIFORNIA, priority 2018, published 2021).

Key:
[1] = system: ASTER domain from Aster-B; experiment: 22-NBD-cholesterol binding competition with sterols, Aster-B; details: competitor 10 μM
Method: FIG. 1E: Aster-B334-562 (1-10 μM) was titrated with 10-3000 nM 22-NBD-cholesterol in PBS and fluorescent ligand-binding assays were performed. […] FIG. 1G: Aster-B334-562 was titrated with 22-NBD-cholesterol in the presence of vehicle, estradiol, or various hydroxycholesterol (HC) sterol competitors as indicated (10 μM). Results values are means±SD.
Fluorescent sterol binding assays were carried out as previously described (Petrescu et al., 2001; Wei et al., 2016) in 384-well black flat-bottom plates and equilibrated at room temperature for 1 hour. Measurements were made using a CLARIOstar (BMG LABTECH) microplate reader. The NBD fluorophore was excited with 1(ex)=470 nm and 1(em)=525 and plotted using Prism software. Dissociation constants (KD) were determined by nonlinear regression analysis of dose-response curves.
Aster-A (FIG. 15A), B (FIG. 15B) and C (FIG. 15C) was titrated with 22-NBD-cholesterol in the presence of vehicle or various HC sterol competitors as indicated (3 μM). […] Results values are means±SD.

[2] = target: ASTER domains from Aster-A, -B, and -C; experiment: fluorescent NBD-cholesterol binding assay; set-up: species or system mouse; details: NBD-cholesterol 10-3,000 nM, ASTER-domain concentration constant; fit to a single exponential; average over the ASTER domains
Method: For binding and transfer studies Aster domains (Aster-A261-576, Aster-B224-560, Aster-C206-528) were expressed by baculovirus in Sf-9 insect cells with an N-terminal FLAG tag and a C-terminal 6× His Tag (“6× His Tag” disclosed as SEQ ID NO: 11). Proteins were expressed with P3 baculovirus for 48 hours at 27° C. Cells were recovered by centrifugation, lysed by sonication. Insoluble material was pelleted at 16,000×g for 40 minutes. Soluble protein was first purified using a Ni-NTA column (Qiagen, 30210) and eluted with 250 mM imidazole PBS buffer after extensive washing. Following dialysis proteins were purified using FLAG M2 affinity gel (Sigma A2220) columns and eluted with 100 μg/mL 1× FLAG peptide after washing for ten column volumes. Proteins were then either dialyzed to remove the FLAG peptide or purified further by size exclusion chromatography.
Fluorescent sterol binding assays were carried out as previously described (Petrescu et al., 2001; Wei et al., 2016) in 384-well black flat-bottom plates and equilibrated at room temperature for 1 hour. Measurements were made using a CLARIOstar (BMG LABTECH) microplate reader. The NBD fluorophore was excited with 1(ex)=470 nm and 1(em)=525 and plotted using Prism software. Dissociation constants (KD) were determined by nonlinear regression analysis of dose-response curves. […]

ASTER domain of Aster-B = experiment: GST agarose assay for [^3H]cholesterol binding; set-up: species or system mouse; details: 150 nM protein, 0.003% Triton X-100 in PBS
Method: Reactions were carried out in binding buffer (0.003% Triton X-100 in 1× PBS) containing 150 nM of Aster-B ASTER protein and [^3H]cholesterol. After incubation for 30 min at room temperature, the mixture was incubated with pre-equilibrated of glutathione agarose resin (Pierce PI16100) at 4° C. for 2 h, then loaded onto a column and washed. The protein-bound [^3H]cholesterol was eluted with 10 mM GSH peptide and quantified by scintillation counting.

Gramd1b = Gramd1b gene expression by real-time PCR in macrophages; assay type: cell-based; details: wild-type (WT) but not LXR-null mouse macrophages; 1 μM, 16 h
Text: Values are means±SEM. Results are representative of three independent experiments. […] Input (Ctrl) served as a control for LXR enrichment. […] FIG. 1D: […] Values are means±SEM. FIG. 1E: […] FIG. 1F: […] Results values are means±SD. FIG. 1G: […] Results values are means±SD. FIG. 1H: […] Values are means±SEM. Total RNA was isolated using TRIzol reagent (Invitrogen) and reverse transcribed with the iScript cDNA synthesis kit (Biorad). cDNA was quantified by real-time PCR using SYBR Green Master Mix (Diagenode) on an ABI 7900 instrument. Gene expression levels were determined by using a standard curve. Each gene was normalized to the housekeeping gene 36B4 and was analyzed in duplicate. Primers used for real-time PCR are available upon request. […] Gramd1b was induced by a synthetic LXR agonist in wild-type (WT) but not LXR-null mouse macrophages (FIG. 1A). […] Gramd1b belongs to a family of highly-conserved genes, which have been designated Gramd1a, -b, and -c in databases. One-to-one orthologs of Gramd1b are present in all vertebrate classes (FIG. 2A). The predicted amino acid sequence of the human protein is 78% identical to that from Oreochromis niloticus (nile tilapia). These genes have not previously been characterized; their structures are incorrectly annotated in databases; and the function of their protein products is unknown. […] The protein products are referred to as Aster-A, -B, and -C.

3T3-L1 cells [3] = experiment: cholesteryl ester formation from [^3H]oleate after Aster-A ASO; assay type: cell-based, murine
Method: FIG. 13A: Immunoblot analysis of membrane (top) and nuclear (bottom) protein levels in 3T3-L1 cells treated for 48 h with control or Aster-A-specific ASO and then for the indicated times with cyclodextrin-cholesterol. Calnexin was used as a membrane loading control and Lamin A/C as a nuclear loading control. FIG. 13B: Real-time PCR analysis of gene expression in 3T3-L1 cells treated for 48 h with control or Aster-A-specific ASO and then for the indicated times with cyclodextrin-cholesterol. ***p<0.001. FIG. 13C: Real-time PCR analysis of Abca1 expression in 3T3-L1 cells treated for 48 h with control or Aster-A-specific ASO and then for the indicated times with cyclodextrin-cholesterol. **p<0.01; ***p<0.001. […] Cells were incubated with [^3H]oleate for the indicated time, CE was isolated by TLC, and the incorporation of label into CE quantified by scintillation counting and normalized to protein (mg). *p<0.05; ***p<0.001. […] FIG. 13H: Serum corticosterone levels measured by ELISA in WT and Aster-B KO mice that were fed ad-lib or fasted overnight (˜16 hours). […]
To assess the effects of Aster deficiency on CE production, cells were incubated in the presence of [^3H]oleate, treated with cyclodextrin-cholesterol complexes, and the incorporation of label into CE was quantified. […]

3T3-L1 cells [4] = experiment: Aster-A ASO knockdown, SREBP-2 pathway and gene/protein expression; assay type: cell-based, murine
Method: FIG. 13A: Immunoblot analysis of membrane (top) and nuclear (bottom) protein levels in 3T3-L1 cells treated for 48 h with control or Aster-A-specific ASO and then for the indicated times with cyclodextrin-cholesterol. Calnexin was used as a membrane loading control and Lamin A/C as a nuclear loading control. FIG. 13B: Real-time PCR analysis of gene expression in 3T3-L1 cells treated for 48 h with control or Aster-A-specific ASO and then for the indicated times with cyclodextrin-cholesterol. ***p<0.001. FIG. 13C: Real-time PCR analysis of Abca1 expression in 3T3-L1 cells treated for 48 h with control or Aster-A-specific ASO and then for the indicated times with cyclodextrin-cholesterol. **p<0.01; ***p<0.001. FIG. 13D: Time course of cholesteryl ester formation in 3T3-L1 fibroblasts treated with control or Aster-A-specific ASO for 48 h. Cells were incubated with [^3H]oleate for the indicated time, CE was isolated by TLC, and the incorporation of label into CE quantified by scintillation counting and normalized to protein (mg). *p<0.05; ***p<0.001. FIG. 13E: Expression levels of the indicated genes in adrenal glands from WT and Aster-B KO mice (mean±SEM; N=6-8 per group). Statistical analysis was performed using Student's t-test. Values are means±SEM. *p<0.05; **p<0.01; ***p<0.001; ****p<0.0001. FIG. 13F: Immunoblot analysis of membrane (top) and nuclear (bottom) protein levels in adrenals from WT and Aster-B KO mice (n=5). Calnexin was used as a membrane loading control and Lamin A/C as a nuclear loading control. FIG. 13G: Serum cholesterol levels in WT and Aster-B KO mice that were fasting for five h (mean±SEM; N=6 per group). FIG. 13H: Serum corticosterone levels measured by ELISA in WT and Aster-B KO mice that were fed ad-lib or fasted overnight (˜16 hours). N=4 per group. Statistical analysis was performed using Student's t-test. Values are mean±SEM. *p<0.05; **p<0.01; ***p<0.001; ****p<0.0001.
Generation 2.5 constrained ethyl ASOs were synthesized as described previously (Seth et al., 2009). For in vitro knockdown studies, control or Aster-A ASO ([…] (SEQ ID NO: 13)) was used. Undifferentiated murine 3T3-L1 cells were plated in 10% FBS DMEM on Day 0. On Day 1 cells were washed and supplemented with 1% LPDS. Cells were then transfected with ASOs using Dharmafect 1 reagent per the manufacturer's recommendations for knockdown studies (Dharmacon, 50 nM final concentration). On Day 2, the medium was changed to fresh DMEM with 1% LPDS, simvastatin (5 μM) and mevalonate (50 μM). On Day 3 cells were treated as described in FIG. 7A and samples were collected. The rate of incorporation of [^3H]oleate into cholesteryl [^3H]oleate was performed on Day 3 as previously described (Goldstein et al., 1983).
The consequence of loss of Aster function for sterol movement from the PM to the ER in cultured cells was investigated. Since Aster-B expression is minimal in most cultured cell lines, knockdown Aster-A expression, which is abundant 3T3-L1 cells, was chosen. When ER cholesterol levels rise, cells respond first by suppressing SREBP-2 cleavage (thereby blocking sterol synthesis) and second by activating ACAT-dependent CE synthesis. Cholesterol movement to the ER following exogenous delivery was assessed by measuring two endpoints: 1. the activity of the SREBP-2 pathway and 2. the formation of cholesterol esters. […] The fact that some suppression of the SREBP-2 pathway at later time points was still observed even with Aster-A ASO was not unexpected, since vesicular sterol transport pathways were presumably still operative.

Aster-B GRAM domain = target: T1, Aster-B GRAM domain (Mus musculus, UniProt Q80TI0); experiment: protein-lipid overlay (PIP Strips); assay type: binding; details: lipid strip, 100 pmol lipid per spot
T1 construct: B GRAM (Aster-B1-337) was conducted using PIP Strips (Echelon Biosciences); made in house; host or cells: Sf9 insect cells
T1 sequence (Q80TI0 41-377 limits assumed): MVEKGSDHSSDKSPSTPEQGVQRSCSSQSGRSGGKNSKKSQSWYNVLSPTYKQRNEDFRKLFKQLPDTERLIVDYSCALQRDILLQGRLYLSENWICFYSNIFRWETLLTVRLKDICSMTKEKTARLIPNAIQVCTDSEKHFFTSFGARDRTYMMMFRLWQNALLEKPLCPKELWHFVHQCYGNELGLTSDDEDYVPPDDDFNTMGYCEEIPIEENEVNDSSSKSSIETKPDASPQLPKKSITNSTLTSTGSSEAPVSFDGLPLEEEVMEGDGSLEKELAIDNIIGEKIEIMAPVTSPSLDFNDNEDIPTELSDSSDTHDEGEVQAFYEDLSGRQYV
Method: FIG. 9A: Protein-lipid overlay over purified mouse Aster-B GRAM domain with various phospholipid species. PA and PS correspond to phosphatidic acid and phosphatidylserine, respectively. FIG. 9A discloses “6xHis” as SEQ ID NO: 11. FIG. 9B: Purified Aster-B GRAM domain was incubated with sucrose-loaded heavy liposomes containing Dansyl-PE and 80-85% PC or 80-85% PS+/−5% Cholesterol. Liposomes were sedimented, washed, and analyzed by immunoblotting for associated Aster-B Gram protein (anti-His antibody). FIG. 9C: Localization of full-length and B ΔGRAM Aster-B-GFP constructs with plasma membrane (CellMask stain) expressed in HeLa cells in the presence or absence of cholesterol loading imaged by live cell confocal microscopy. […] FIG. 9E: Quantification of Aster-B PH-EGFP intensity in the TIRF plane upon cholesterol loading (left panel; n=2-3 cells, error bars+/−SD). […] TIRF videos recorded 5 slices (slices 3-5 were used to calculate FO) before cholesterol addition. […]
The Aster proteins contain an N-terminal GRAM domain, a structural motif related to the pleckstrin homology domain that is found in glucosyltransferases, Rab-like GTPase activators, myotubularins, and other membrane-associated proteins. […] Given that phosphatidylserine is highly enriched in the inner leaflet of the PM, it was further determined if the Aster-B GRAM domain was associated with phosphatidylserine-containing liposomes.

Compound: CC(C)CCC[C@@H](C)[C@H]1CC[C@H]2[C@@H]3CC=C4[C@@H](O)[C@@H](O)CC[C@]4(C)[C@H]3CC[C@]12C [4β-hydroxycholesterol]
- inhibition of binding of NBD-cholesterol to the ASTER domain from Aster-B [1]: comparatively poor competitors

Compound: CC(C)CCC[C@@H](C)[C@H]1CC[C@H]2[C@@H]3[C@@H](O)C=C4C[C@@H](O)CC[C@]4(C)[C@H]3CC[C@]12C [7β-hydroxycholesterol]
- inhibition of binding of NBD-cholesterol to the ASTER domain from Aster-B [1]: comparatively poor competitors

Compound: CC(C)CCC[C@](C)(O)[C@H]1CC[C@H]2[C@@H]3CC=C4C[C@@H](O)CC[C@]4(C)[C@H]3CC[C@@]21C [20α-HC, 20α-hydroxycholesterol]
- inhibition of binding of NBD-cholesterol to the ASTER domain from Aster-B [1]: inhibited

Compound: CC(C)CC[C@@H](O)[C@@H](C)[C@H]1CC[C@H]2[C@@H]3CC=C4C[C@@H](O)CC[C@]4(C)[C@H]3CC[C@]12C [22R-HC, 22-R-hydroxycholesterol]
- inhibition of binding of NBD-cholesterol to the ASTER domain from Aster-B [1]: inhibited

Compound: CC(C)CC[C@H](O)[C@@H](C)[C@H]1CC[C@H]2[C@@H]3CC=C4C[C@@H](O)CC[C@]4(C)[C@H]3CC[C@]12C [22S-hydroxycholesterol]
- inhibition of binding of NBD-cholesterol to the ASTER domain from Aster-B [1]: comparatively poor competitors

Compound: C[C@H](CCCC(C)(C)O)[C@H]1CC[C@H]2[C@@H]3CC=C4C[C@@H](O)CC[C@]4(C)[C@H]3CC[C@]12C [25-HC, 25-hydroxycholesterol]
- inhibition of binding of NBD-cholesterol to the ASTER domain from Aster-B [1]: inhibited

Compound: C[C@H](CNc1ccc([N+](=O)[O-])c2nonc12)[C@H]1CC[C@H]2[C@@H]3CC=C4C[C@@H](O)CC[C@]4(C)[C@H]3CC[C@]12C [NBD-cholesterol, 22-NBD-cholesterol]
- Kd [2]: < 0.1 µM

Compound: CC(C)CCC[C@@H](C)[C@H]1CC[C@H]2[C@@H]3CC=C4C[C@@H](O)CC[C@]4(C)[C@H]3CC[C@]12C [[^3H]cholesterol]
- direct binding to the ASTER domain of Aster-B (ASTER domain of Aster-B): direct binding

Compound: CC(C)CCC[C@@H](C)[C@H]1CC[C@H]2[C@@H]3CC=C4C[C@@H](O)CC[C@]4(C)[C@H]3CC[C@]12C [cholesterol]
- inhibition of binding of NBD-cholesterol to the ASTER domain from Aster-B [1]: inhibited

Compound: O=C(O)Cc1cccc(OCCCN(Cc2cccc(C(F)(F)F)c2Cl)CC(c2ccccc2)c2ccccc2)c1 [synthetic LXR agonist, GW3965]
- Gramd1b expression (Gramd1b): induced

Compound: Aster-A-specific ASO: Generation 2.5 constrained ethyl ASO, GTGGAATTTATTCAGG (SEQ ID NO: 13) (Generation 2.5 constrained ethyl (cEt) ASO, modification pattern not given here)
- rate at which cholesterol delivered to the PM was incorporated into CE (3T3-L1 cells [3]; [^3H]oleate, cyclodextrin-cholesterol): markedly slower
- amount of CE formed relative to control cells (3T3-L1 cells [3]; two hours after cholesterol addition): less than 25%
- Gramd1a expression (3T3-L1 cells [4]; ASO 50 nM, 48 h): nearly abolished
- LDLR protein levels (3T3-L1 cells [4]; ASO 48 h): increased
- SREBP-2 processing (3T3-L1 cells [4]; ASO 48 h): induction
- expression of SREBP-2 target genes, including Hmcgr, and Hmgcs (3T3-L1 cells [4]; ASO 48 h): increased
- ability of exogenously added cyclodextrin-cholesterol to suppress SREBP-2 processing (3T3-L1 cells [4]; Aster-A silenced cells): clearly delayed
- expression of Abca1 (protein and mRNA) (3T3-L1 cells [4]; absence of Aster-A): reciprocally reduced

Compound: phosphatidic acid [phosphatidic acid (PA)]
- interaction with purified Aster-B GRAM domain (Aster-B GRAM domain): interacted strongly
